The numbers were not newly measured in patent US6663901B1, “Pellets having a core coated with an antifungal and a polymer” (Janssen Pharmaceutical N.V., priority 1998, dated 2003), which cites them from elsewhere.

Consider `CCC(C)n1ncn(-c2ccc(N3CCN(c4ccc(OCC5COC(Cn6cncn6)(c6ccc(Cl)cc6Cl)O5)cc4)CC3)cc2)c1=O` (racemic) [itraconazole, (±)-cis-4-[4-[4-[4-[[2-(2,4-dichlorophenyl)-2-(1H-1,2,4-triazol-1-methyl)-1,3-dioxolan-4-yl]methoxy]phenyl]-1-piperazinyl]phenyl]-2,4-dihydro-2-(1-methylpropyl)-3H-1,2,4-triazol-3-one], for which the solubility in water entry is reported as “only very sparingly soluble”.
